Laboratory results from US9963482B2, “Phosphatidylinositol-3-kinase inhibitor and pharmaceutical composition” (Tohoku University, priority 2011, dated 2018).
pIC50: −log10 of the molar value. Where two headings read alike, the source gives them in different places.

What was measured:
[1] = test system: AKT pathway in PC3 (prostate cancer) cells; assay: AKT pathway inhibition by Western blotting in PC3 cells; type: cell-based, human
Experimental: PC3 cells were obtained from Cell Resource Center for Medical Research of Institute of Development, Aging, and Cancer, Tohoku University. The cells were cultured at 37° C. in the presence of 5% CO2 by using RPMI1640 medium containing inactivated fetal bovine serum at the concentration of 10%.
Western blotting was performed as follows. Various kinds of the cells treated with each compound were collected and lysed in a lysis buffer (500 mM Tris-HCl pH 7.5, 100 mM NaCl, 2 mM EDTA, 1 mM sodium orthovanadate, 1% NP-40, and 1% protease inhibitor cocktail, manufactured by SIGMA-ALDRICH). After centrifugation, the supernatants were collected.
The followings were used as primary antibodies.
As a secondary antibody, “Alexa Fluor680IgG” (trade name, manufactured by Invitrogen) was used. By using “Odyssey Infrared Imaging System” (trade name, manufactured by LI-COR), expression of the protein of interest was determined.

[2] = test system: CO115 cells; assay: Cytotoxic effect by MTT assay, CO115; type: cell-based, human; conditions: CO115, 24 hours, μM levels
Experimental: (§1) The human culture cells used were colon cancer cell lines (HCT116, CO115, and RKO). HCT116 and RKO were obtained from American Type Culture Collection (ATCC). CO115 was obtained from John M. Mariadason (Ludwig Institute for Cancer Research, Melbourne, Australia). The cells were cultured at 37° C. in the presence of 5% CO2 by using RPMI1640 medium containing inactivated fetal bovine serum at the concentration of 10%.
(§2) After 24 hours, the number of live cells was determined by using “Cell counting kit-8” (trade name, manufactured by DOJINDO CO., LTD). […] The amount of formazan dye and the number of live cells are in proportional relationship, and by measuring the absorbance of formazan at 450 nm using a microplate reader (trade name: “SpectraMax M2e”, manufactured by Molecular Devices), the number of live cells was counted.

[3] = test system: RKO cells; assay: Cytotoxic effect by MTT assay, RKO; type: cell-based, human; conditions: 24 hours, μM levels
Experimental: as §1, §2

[4] = molecular target: T1, human p110α expressed in budding yeast (Homo sapiens, UniProt P42336); assay: Screening of PI3K inhibitor using budding yeast (recovery from cell proliferation disorder caused by p110α); type: cell-based; conditions: AD1-9 transformant expressing p110α, compound 5 μM, 24 hours, average of three tests
T1 construct: expressed in transfected cells; host or cells: Saccharomyces cerevisiae AD1-9 (LEU2-disrupted), galactose-induced
Experimental: AD1-9 strain can be obtained from Nader Nourizad (Stanford Genome Technology Center Stanford University, CA, USA).
The transformed AD 1-9 strain was cultured at 30° C. in a minimal complete medium SC-U-L containing no uracil and leucine or SGal-U-L in which 2% glucose was replaced with 2% galactose.
By using the aforementioned system, screening of the compound library, which was obtained from the Screening committee of anticancer drugs supported by grant-in-aid for scientific research on priority area “Cancer” from Ministry of Education, Culture, Sports, Science, and Technology, Japan, was performed. Each compound was added to SGal-U-L liquid medium to constitute a concentration of 0.5 μM or 5 μM and the transformant of AD 1-9 was cultured for 24 hours under shaking. Thereafter, A600 was measured. […] Three independent tests were repeatedly performed to calculate the average value of A600.

[5] = test system: HCT116 cells; assay: FACS cell cycle analysis in HCT116 cells; type: cell-based, human; conditions: HCT116, 24 hours; SAHA 2.5 μM, LY294002 50 μM, FK228 or FK-A5 at low concentration
Experimental: The cells were collected, fixed with ethanol, stained with iodopropidium/PBS solution, and analyzed by using “Cytomics FC500 Flow Cytometry System” (trade name, manufactured by Beckman Coulter). The cell cycle fractions were calculated by using “Multicycle software” (trade name, manufactured by Phenomix Flow Systems).

[6] = molecular target: HDAC1 (Homo sapiens, UniProt Q13547); conditions: cited from earlier work
[7] = molecular target: T2, HDAC6 (Homo sapiens, UniProt Q9UBN7); conditions: Table 2; cited from earlier work
T2 sequence (Q9UBN7 1-1215): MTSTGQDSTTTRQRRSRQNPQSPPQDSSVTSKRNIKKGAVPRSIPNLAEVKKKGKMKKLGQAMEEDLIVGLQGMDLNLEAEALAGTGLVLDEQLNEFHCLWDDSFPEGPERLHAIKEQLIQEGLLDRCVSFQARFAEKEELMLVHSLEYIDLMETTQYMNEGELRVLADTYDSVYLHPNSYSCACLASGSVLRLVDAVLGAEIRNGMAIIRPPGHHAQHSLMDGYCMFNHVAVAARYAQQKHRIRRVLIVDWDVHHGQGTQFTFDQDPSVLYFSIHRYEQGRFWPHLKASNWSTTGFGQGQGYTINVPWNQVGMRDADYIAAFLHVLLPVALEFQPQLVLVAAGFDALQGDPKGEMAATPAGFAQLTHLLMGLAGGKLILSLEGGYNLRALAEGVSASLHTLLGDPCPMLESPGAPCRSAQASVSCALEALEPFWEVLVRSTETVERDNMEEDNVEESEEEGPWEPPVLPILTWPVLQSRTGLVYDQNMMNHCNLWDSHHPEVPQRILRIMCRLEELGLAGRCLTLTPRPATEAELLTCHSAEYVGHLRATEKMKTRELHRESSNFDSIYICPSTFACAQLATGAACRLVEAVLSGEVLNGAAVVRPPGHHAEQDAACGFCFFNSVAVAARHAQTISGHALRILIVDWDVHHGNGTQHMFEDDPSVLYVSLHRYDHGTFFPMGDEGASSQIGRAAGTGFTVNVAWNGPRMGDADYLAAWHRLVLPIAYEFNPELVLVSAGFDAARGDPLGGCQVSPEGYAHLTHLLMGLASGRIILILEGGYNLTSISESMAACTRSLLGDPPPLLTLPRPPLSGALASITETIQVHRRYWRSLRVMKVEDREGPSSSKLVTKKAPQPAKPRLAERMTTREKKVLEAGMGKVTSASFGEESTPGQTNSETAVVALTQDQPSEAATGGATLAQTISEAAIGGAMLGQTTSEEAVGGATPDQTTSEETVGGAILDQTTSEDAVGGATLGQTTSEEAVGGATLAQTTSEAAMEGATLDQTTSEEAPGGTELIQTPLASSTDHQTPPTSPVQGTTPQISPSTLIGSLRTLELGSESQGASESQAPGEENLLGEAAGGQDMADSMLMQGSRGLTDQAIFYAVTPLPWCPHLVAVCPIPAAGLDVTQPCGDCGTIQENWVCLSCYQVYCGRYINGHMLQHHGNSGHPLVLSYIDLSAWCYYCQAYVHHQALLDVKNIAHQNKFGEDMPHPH

[8] = molecular target: T3, PI3K (p110α/p85α) (Homo sapiens, UniProt P42336); assay: In vitro PI3K inhibitory activity by mobility shift assay (Carna Biosciences); type: biochemical
T3 construct: purchased Carna Biosciences, Inc. (Kobe); contract measurement
Experimental: The PI3K (p110α/p85α) inhibitory activity was evaluated at Carna Biosciences, Inc. (Kobe) by mobility shift assay which included isolation and quantification of a substrate and the phosphorylated substrate based on the mobility in a capillary (https://www.carnabio.com/japanese/product/search.cgi?mode=profiling). […] After allowing the reaction to occur for 5 hours at room temperature, the mobility shift assay was performed. The test was performed in duplicate.
Inhibition rate was calculated as follows.
The value of product/substrate+product when an agent was added thereto was calculated similarly, and the inhibition rate was calculated based on a difference from the control value.

[9] = test system: HCT116 cells; assay: Cytotoxic effect by MTT assay, HCT116; type: cell-based, human; conditions: HCT116, 24 hours, μM levels
Experimental: as §1, §2

T3 sequence (P42336 whole entry): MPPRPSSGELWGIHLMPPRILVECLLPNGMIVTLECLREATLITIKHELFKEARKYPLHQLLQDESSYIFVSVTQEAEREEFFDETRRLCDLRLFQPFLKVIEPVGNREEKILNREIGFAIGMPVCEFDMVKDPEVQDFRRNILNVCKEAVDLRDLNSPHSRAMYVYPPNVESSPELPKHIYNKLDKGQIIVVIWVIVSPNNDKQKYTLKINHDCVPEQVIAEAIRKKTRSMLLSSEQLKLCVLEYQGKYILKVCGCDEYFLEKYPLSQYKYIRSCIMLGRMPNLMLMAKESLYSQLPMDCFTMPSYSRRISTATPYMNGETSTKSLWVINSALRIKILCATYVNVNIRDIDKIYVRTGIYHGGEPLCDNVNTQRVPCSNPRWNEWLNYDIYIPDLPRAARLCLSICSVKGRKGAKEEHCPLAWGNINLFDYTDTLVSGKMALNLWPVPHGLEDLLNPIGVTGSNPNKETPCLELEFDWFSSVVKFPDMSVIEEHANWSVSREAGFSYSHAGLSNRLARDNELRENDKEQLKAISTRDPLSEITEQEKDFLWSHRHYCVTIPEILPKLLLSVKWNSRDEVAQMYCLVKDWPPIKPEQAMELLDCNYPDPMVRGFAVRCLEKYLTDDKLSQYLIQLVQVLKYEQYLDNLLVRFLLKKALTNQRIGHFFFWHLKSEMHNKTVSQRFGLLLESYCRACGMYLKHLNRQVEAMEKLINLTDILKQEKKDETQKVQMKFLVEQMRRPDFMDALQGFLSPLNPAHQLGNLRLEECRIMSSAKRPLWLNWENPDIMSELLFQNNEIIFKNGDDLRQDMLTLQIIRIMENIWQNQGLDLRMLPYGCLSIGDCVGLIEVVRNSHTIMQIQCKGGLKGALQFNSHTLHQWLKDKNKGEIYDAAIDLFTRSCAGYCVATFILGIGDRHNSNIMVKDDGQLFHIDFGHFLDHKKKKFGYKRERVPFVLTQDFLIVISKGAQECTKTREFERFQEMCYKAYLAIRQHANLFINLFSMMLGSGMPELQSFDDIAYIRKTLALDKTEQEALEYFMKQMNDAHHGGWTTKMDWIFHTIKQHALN
T3 sequence (P27986 whole entry partner): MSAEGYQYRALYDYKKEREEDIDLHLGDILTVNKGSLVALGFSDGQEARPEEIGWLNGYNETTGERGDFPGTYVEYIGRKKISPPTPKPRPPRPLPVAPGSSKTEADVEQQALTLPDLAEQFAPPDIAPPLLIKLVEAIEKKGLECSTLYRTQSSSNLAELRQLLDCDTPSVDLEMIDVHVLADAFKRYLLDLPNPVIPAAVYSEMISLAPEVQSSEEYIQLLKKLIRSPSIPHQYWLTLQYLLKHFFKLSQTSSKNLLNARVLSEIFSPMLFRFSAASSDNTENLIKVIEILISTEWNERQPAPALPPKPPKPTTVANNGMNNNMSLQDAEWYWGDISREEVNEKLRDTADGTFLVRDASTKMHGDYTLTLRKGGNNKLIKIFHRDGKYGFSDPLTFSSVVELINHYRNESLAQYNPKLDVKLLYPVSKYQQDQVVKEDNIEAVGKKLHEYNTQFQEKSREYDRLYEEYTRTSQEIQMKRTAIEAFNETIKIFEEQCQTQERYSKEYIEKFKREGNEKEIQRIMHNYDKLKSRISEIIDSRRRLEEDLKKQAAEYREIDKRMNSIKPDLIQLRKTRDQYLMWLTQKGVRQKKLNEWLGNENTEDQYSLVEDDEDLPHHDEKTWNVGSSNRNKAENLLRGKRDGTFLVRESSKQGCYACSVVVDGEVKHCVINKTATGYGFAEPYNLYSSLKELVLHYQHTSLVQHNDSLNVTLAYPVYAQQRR
HDAC1, sequence (Q13547 whole entry, species assumed): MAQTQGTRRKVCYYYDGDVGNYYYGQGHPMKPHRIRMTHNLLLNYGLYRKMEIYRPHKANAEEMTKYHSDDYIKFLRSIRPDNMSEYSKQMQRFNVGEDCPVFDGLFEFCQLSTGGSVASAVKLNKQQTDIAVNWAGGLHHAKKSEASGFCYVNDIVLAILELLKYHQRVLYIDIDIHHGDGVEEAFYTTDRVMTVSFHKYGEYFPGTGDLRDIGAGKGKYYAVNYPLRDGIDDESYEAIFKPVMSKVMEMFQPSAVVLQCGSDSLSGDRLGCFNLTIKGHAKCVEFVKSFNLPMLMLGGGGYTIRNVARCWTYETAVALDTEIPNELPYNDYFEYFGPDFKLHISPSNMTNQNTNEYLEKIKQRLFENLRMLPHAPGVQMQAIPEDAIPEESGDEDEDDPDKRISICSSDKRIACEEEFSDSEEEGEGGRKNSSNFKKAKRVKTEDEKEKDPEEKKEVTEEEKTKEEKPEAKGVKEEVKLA
T1 sequence (P42336 whole entry): as the sequence (P42336 whole entry) above

CC(C)[C@H]1NC(=O)CC2/C=C/CCSSCC(NC1=O)C(=O)N[C@H](Cc1ccccc1)C(=O)NCC(=O)O2 (stereo in doubt) [FK-A5]
expression level of phosphorylated AKT (Ser-473, Thr-308) over time ([1]; 10 μM, 5 to 180 minutes): lowered the expression level of phosphorylated AKT (Ser-473, Thr-308) | phosphorylated ERK1/2 ([1]; 180 minutes): slightly inhibited | phosphorylated MEK1/2 ([1]; 180 minutes): not inhibited | expression levels of phosphorylated AKT, GSK-3β, mTOR, p70S6K and 4E-BP1 ([1]; 180 minutes, varying concentration): inhibited in a concentration dependent manner | number of cells at high concentration [2]: very significantly reduced the number of cells | number of cells at high concentration [3]: very significantly reduced the number of cells | A600 [4]: 0.449 | cell cycle arrest [5]: induced cell cycle arrest, predominantly at G2/M phase | pIC50 ([6]; Table 2): 8.60 | pIC50 ([6]; Table 3): 8.60 | pIC50 [7]: 5.80 | pIC50 ([8]; 50 μM ATP, read-out: IC50 for PI3K): 4.58 | pIC50 ([8]; Table 3, PI3K (p110α/p85α), read-out: PI3K IC50): 4.56 | PI3K activity inhibitory rate ([8]; compound 20 μM, 50 μM ATP): higher inhibition rate than FK228 | inhibition at 20 µM ([8]; compound 20 μM, 50 μM ATP, read-out: PI3K activity inhibitory rate): 66.8% | number of cells at high concentration [9]: very significantly reduced the number of cells
